Data: ChEMBL document CHEMBL5030565, “Stapled Peptides Targeting SARS-CoV-2 Spike Protein HR1 Inhibit the Fusion of Virus to Its Cell Receptor” (J Med Chem, 2021)

Tests used:
SARS-CoV-2 [1] = experiment: Antiviral activity against pseudotyped SARS-CoV-2 infected in Huh7 cells expressing hACE2 at 10 uM preincubated for 1 hr followed by cell infection measured after 2 days by bright-Glo luciferase assay; format: functional, Severe acute respiratory syndrome coronavirus 2, Huh-7; settings: time 49 hrs
SARS-CoV-2 [2] = experiment: Antiviral activity against SARS-CoV-2 infected in Vero E6 cells assessed as reduction in viral replication at 12.5 uM preincubated for 30 mins followed by viral infection measured after 72 hrs by crystal violet staining based plaque assay; format: functional, Severe acute respiratory syndrome coronavirus 2; set-up: scale not given: the % may be the effect or the level left
SARS-CoV-2 [3] = experiment: Antiviral activity against pseudotyped SARS-CoV-2 infected in Huh7 cells expressing hACE2 preincubated for 1 hr followed by cell infection measured after 2 days by bright-Glo luciferase assay; format: functional, organism-based; settings: Severe acute respiratory syndrome coronavirus 2, Huh-7

Row | Structure (SMILES) | Activity (SARS-CoV-2 [1]) [%] | Activity (SARS-CoV-2 [2]) [%] | EC50 (SARS-CoV-2 [3]) [µM]
1 | CC[C@H](C)[C@H](NC(=O)CNC(=O)[C@H](CO)NC(=O)[C@@H](NC(=O)[C@H](CC(=O)O)NC(C)=O)[C@@H](C)CC)C(=O)N[C@@H](CC(N)=O)C(=O)N[C@@H](C)C(=O)N[C@@H](CO)C(=O)N[C@H](C(=O)N[C@H](C(=O)N[C@@H](CC(N)=O)C(=O)N[C@H](C(=O)N[C@@H](CCC(N)=O)C(=O)N[C@@H](CCCCN)C(=O)N[C@@H](CCC(=O)O)C(=O)N[C@H](C(=O)N[C@@]1(C)CCC/C=C\CCC[C@@](C)(C(=O)N[C@H](C(=O)N[C@@H](C)C(=O)N[C@@H](CCCCN)C(=O)N[C@@H](CC(N)=O)C(=O)N[C@@H](CC(C)C)C(=O)N[C@@H](CC(N)=O)C(=O)N[C@@H](CCC(=O)O)C(=O)N[C@@H](CO)C(=O)N[C@@H](CC(C)C)C(=O)N[C@H](C(=O)N[C@@H](CC(=O)O)C(=O)N[C@@H](CC(C)C)C(=O)N[C@@H](CCC(N)=O)C(=O)N[C@@H](CCC(=O)O)C(=O)N[C@@H](CC(C)C)C(N)=O)[C@@H](C)CC)C(C)C)NC(=O)[C@H](CC(N)=O)NC(=O)[C@H](CC(C)C)NC(=O)[C@H](CCCNC(=N)N)NC1=O)[C@@H](C)CC)[C@@H](C)CC)C(C)C)C(C)C | 27.8 | 35 | 
2 | CC[C@H](C)[C@H](NC(=O)CNC(=O)[C@H](CO)NC(=O)[C@@H](NC(=O)[C@H](CC(=O)O)NC(C)=O)[C@@H](C)CC)C(=O)N[C@@H](CC(N)=O)C(=O)N[C@@H](C)C(=O)N[C@@H](CO)C(=O)N[C@H](C(=O)N[C@H](C(=O)N[C@@H](CC(N)=O)C(=O)N[C@H](C(=O)N[C@@H](CCC(N)=O)C(=O)N[C@@H](CCCCN)C(=O)N[C@@H](CCC(=O)O)C(=O)NC1(C)CCC/C=C\CCCC(C)(C(=O)NC(CCC(=O)O)C(=O)N[C@H](C(=O)N[C@@H](C)C(=O)N[C@@H](CCCCN)C(=O)N[C@@H](CC(N)=O)C(=O)N[C@@H](CC(C)C)C(=O)N[C@@H](CC(N)=O)C(=O)N[C@@H](CCC(=O)O)C(=O)N[C@@H](CO)C(=O)N[C@@H](CC(C)C)C(=O)N[C@H](C(=O)N[C@@H](CC(=O)O)C(=O)N[C@@H](CC(C)C)C(=O)N[C@@H](CCC(N)=O)C(=O)N[C@@H](CCC(=O)O)C(=O)N[C@@H](CC(C)C)C(N)=O)[C@@H](C)CC)C(C)C)NC(=O)[C@H](CC(C)C)NC(=O)[C@H](CCCNC(=N)N)NC(=O)[C@H](CC(=O)O)NC1=O)[C@@H](C)CC)C(C)C)C(C)C (stereo not given in full) | 50.8 | 25 | 14.6
3 | CC[C@H](C)[C@H](NC(=O)CNC(=O)[C@H](CO)NC(=O)[C@@H](NC(=O)[C@H](CC(=O)O)NC(C)=O)[C@@H](C)CC)C(=O)N[C@@H](CC(N)=O)C(=O)N[C@@H](C)C(=O)N[C@@H](CO)C(=O)N[C@H](C(=O)N[C@H](C(=O)N[C@@H](CC(N)=O)C(=O)N[C@H](C(=O)N[C@@H](CCC(N)=O)C(=O)N[C@@]1(C)CCC/N=C\CCC[C@@](C)(C(=O)N[C@@H](CC(C)C)C(=O)N[C@@H](CC(N)=O)C(=O)N[C@@H](CCC(=O)O)C(=O)N[C@H](C(=O)N[C@@H](C)C(=O)N[C@@H](CCCCN)C(=O)N[C@@H](CC(N)=O)C(=O)N[C@@H](CC(C)C)C(=O)N[C@@H](CC(N)=O)C(=O)N[C@@H](CCC(=O)O)C(=O)N[C@@H](CO)C(=O)N[C@@H](CC(C)C)C(=O)N[C@H](C(=O)N[C@@H](CC(=O)O)C(=O)N[C@@H](CC(C)C)C(=O)N[C@@H](CCC(N)=O)C(=O)N[C@@H](CCC(=O)O)C(=O)N[C@@H](CC(C)C)C(N)=O)[C@@H](C)CC)C(C)C)NC(=O)[C@H](CC(=O)O)NC(=O)[C@H]([C@@H](C)CC)NC(=O)[C@H](CCC(=O)O)NC1=O)[C@@H](C)CC)C(C)C)C(C)C | 16.1 | 28.5 | 
4 | CC[C@H](C)[C@H](NC(=O)CNC(=O)[C@H](CO)NC(=O)[C@@H](NC(=O)[C@H](CC(=O)O)NC(C)=O)[C@@H](C)CC)C(=O)N[C@@H](CC(N)=O)C(=O)N[C@@H](C)C(=O)N[C@@H](CO)C(=O)N[C@H](C(=O)N[C@H](C(=O)N[C@@H](CC(N)=O)C(=O)N[C@H](C(=O)N[C@@]1(C)CCC/C=C\CCC[C@@](C)(C(=O)N[C@@H](CCCNC(=N)N)C(=O)N[C@@H](CC(C)C)C(=O)N[C@@H](CC(N)=O)C(=O)N[C@@H](CCC(=O)O)C(=O)N[C@H](C(=O)N[C@@H](C)C(=O)N[C@@H](CCCCN)C(=O)N[C@@H](CC(N)=O)C(=O)N[C@@H](CC(C)C)C(=O)N[C@@H](CC(N)=O)C(=O)N[C@@H](CCC(=O)O)C(=O)N[C@@H](CO)C(=O)N[C@@H](CC(C)C)C(=O)N[C@H](C(=O)N[C@@H](CC(=O)O)C(=O)N[C@@H](CC(C)C)C(=O)N[C@@H](CCC(N)=O)C(=O)N[C@@H](CCC(=O)O)C(=O)N[C@@H](CC(C)C)C(N)=O)[C@@H](C)CC)C(C)C)NC(=O)[C@H]([C@@H](C)CC)NC(=O)[C@H](CCC(=O)O)NC(=O)[C@H](CCCCN)NC1=O)[C@@H](C)CC)C(C)C)C(C)C | 47.6 | 35 | 
5 | CC[C@H](C)[C@H](NC(=O)CNC(=O)[C@H](CO)NC(=O)[C@@H](NC(=O)[C@H](CC(=O)O)NC(C)=O)[C@@H](C)CC)C(=O)N[C@@H](CC(N)=O)C(=O)N[C@@H](C)C(=O)N[C@@H](CO)C(=O)N[C@H](C(=O)N[C@H](C(=O)N[C@@H](CC(N)=O)C(=O)N[C@H](C(=O)N[C@@H](CCC(N)=O)C(=O)N[C@@H](CCCCN)C(=O)N[C@@]1(C)CCC/C=C\CCC[C@@](C)(C(=O)N[C@@H](CC(N)=O)C(=O)N[C@@H](CCC(=O)O)C(=O)N[C@H](C(=O)N[C@@H](C)C(=O)N[C@@H](CCCCN)C(=O)N[C@@H](CC(N)=O)C(=O)N[C@@H](CC(C)C)C(=O)N[C@@H](CC(N)=O)C(=O)N[C@@H](CCC(=O)O)C(=O)N[C@@H](CO)C(=O)N[C@@H](CC(C)C)C(=O)N[C@H](C(=O)N[C@@H](CC(=O)O)C(=O)N[C@@H](CC(C)C)C(=O)N[C@@H](CCC(N)=O)C(=O)N[C@@H](CCC(=O)O)C(=O)N[C@@H](CC(C)C)C(N)=O)[C@@H](C)CC)C(C)C)NC(=O)[C@H](CCCNC(=N)N)NC(=O)[C@H](CC(=O)O)NC(=O)[C@H]([C@@H](C)CC)NC1=O)[C@@H](C)CC)C(C)C)C(C)C | 39.8 | 32 | 
6 | CC[C@H](C)[C@H](NC(=O)CNC(=O)[C@H](CO)NC(=O)[C@@H](NC(=O)[C@H](CC(=O)O)NC(C)=O)[C@@H](C)CC)C(=O)N[C@@H](CC(N)=O)C(=O)N[C@@H](C)C(=O)N[C@@H](CO)C(=O)N[C@H](C(=O)N[C@H](C(=O)N[C@@H](CC(N)=O)C(=O)N[C@H](C(=O)N[C@@H](CCC(N)=O)C(=O)N[C@@H](CCCCN)C(=O)N[C@@H](CCC(=O)O)C(=O)N[C@H](C(=O)N[C@@H](CC(=O)O)C(=O)N[C@@]1(C)CCC/C=C\CCC[C@@](C)(C(=O)N[C@@H](C)C(=O)N[C@@H](CCCCN)C(=O)N[C@@H](CC(N)=O)C(=O)N[C@@H](CC(C)C)C(=O)N[C@@H](CC(N)=O)C(=O)N[C@@H](CCC(=O)O)C(=O)N[C@@H](CO)C(=O)N[C@@H](CC(C)C)C(=O)N[C@H](C(=O)N[C@@H](CC(=O)O)C(=O)N[C@@H](CC(C)C)C(=O)N[C@@H](CCC(N)=O)C(=O)N[C@@H](CCC(=O)O)C(=O)N[C@@H](CC(C)C)C(N)=O)[C@@H](C)CC)NC(=O)[C@H](CCC(=O)O)NC(=O)[C@H](CC(N)=O)NC(=O)[C@H](CC(C)C)NC1=O)[C@@H](C)CC)[C@@H](C)CC)C(C)C)C(C)C | 36.8 | 41 | 
7 | CC[C@H](C)[C@H](NC(=O)CNC(=O)[C@H](CO)NC(=O)[C@@H](NC(=O)[C@H](CC(=O)O)NC(C)=O)[C@@H](C)CC)C(=O)N[C@@H](CC(N)=O)C(=O)N[C@@H](C)C(=O)N[C@@H](CO)C(=O)N[C@H](C(=O)N[C@H](C(=O)N[C@@H](CC(N)=O)C(=O)N[C@H](C(=O)N[C@@H](CCC(N)=O)C(=O)N[C@@H](CCCCN)C(=O)N[C@@H](CCC(=O)O)C(=O)N[C@H](C(=O)N[C@@H](CC(=O)O)C(=O)N[C@@H](CCCNC(=N)N)C(=O)N[C@@]1(C)CCC/C=C\CCC[C@@](C)(C(=O)N[C@@H](CCCCN)C(=O)N[C@@H](CC(N)=O)C(=O)N[C@@H](CC(C)C)C(=O)N[C@@H](CC(N)=O)C(=O)N[C@@H](CCC(=O)O)C(=O)N[C@@H](CO)C(=O)N[C@@H](CC(C)C)C(=O)N[C@H](C(=O)N[C@@H](CC(=O)O)C(=O)N[C@@H](CC(C)C)C(=O)N[C@@H](CCC(N)=O)C(=O)N[C@@H](CCC(=O)O)C(=O)N[C@@H](CC(C)C)C(N)=O)[C@@H](C)CC)NC(=O)[C@H](C(C)C)NC(=O)[C@H](CCC(=O)O)NC(=O)[C@H](CC(N)=O)NC1=O)[C@@H](C)CC)[C@@H](C)CC)C(C)C)C(C)C | 25.1 | 33.5 | 
